Results as given in ChEMBL document CHEMBL4024707, “Using gene expression database to uncover biology functions of 1,4-disubstituted 1,2,3-triazole analogues synthesized via a copper (I)-catalyzed reaction” (Eur J Med Chem, 2017).
Calls of active or inactive are those of the source. No cut-off for these calls is given here.

Experiments:
Hep 3B2 [1] = experiment: Cell cycle arrest in human Hep3B cells assessed as accumulation at G0/G1 phase at 2.5 uM after 24 hrs by propidium iodide staining based flow cytometry (reference value: 36.3 to 39.0%); type: functional
Hep 3B2 [2] = experiment: Cell cycle arrest in human Hep3B cells assessed as accumulation at G0/G1 phase at 2.5 uM after 48 hrs by propidium iodide staining based flow cytometry (reference value: 39.7 to 40.4%); type: functional
Hep 3B2 [3] = experiment: Cell cycle arrest in human Hep3B cells assessed as accumulation at S phase at 2.5 uM after 48 hrs by propidium iodide staining based flow cytometry (reference value: 20.8 to 24%); type: functional
Hep 3B2 [4] = experiment: Growth inhibition of human Hep3B cells at 10 uM up to 72 hrs by MTT assay; type: functional, cell-based
Hep 3B2 [5] = experiment: Cell cycle arrest in human Hep3B cells assessed as accumulation at sub-G1 phase at 40 uM after 48 hrs by propidium iodide staining based flow cytometry (reference value: 1.5 to 6.5%); type: functional
Hep 3B2 [6] = experiment: Cell cycle arrest in human Hep3B cells assessed as accumulation at G0/G1 phase at 40 uM after 24 hrs by propidium iodide staining based flow cytometry (reference value: 36.3 to 39.0%); type: functional
Hep 3B2 [7] = experiment: Cell cycle arrest in human Hep3B cells assessed as accumulation at G0/G1 phase at 40 uM after 48 hrs by propidium iodide staining based flow cytometry (reference value: 39.7 to 40.4%); type: functional
Hep 3B2 [8] = experiment: Cell cycle arrest in human Hep3B cells assessed as accumulation at G2/M phase at 40 uM after 48 hrs by propidium iodide staining based flow cytometry (reference value: 34.8 to […]%); type: functional
Hep 3B2 [9] = experiment: Cell cycle arrest in human Hep3B cells assessed as accumulation at S phase at 40 uM after 72 hrs by propidium iodide staining based flow cytometry (reference value: 16.4 to 21.1%); type: functional
Hep 3B2 [10] = experiment: Cell cycle arrest in human Hep3B cells assessed as accumulation at G2/M phase at 40 uM after 72 hrs by propidium iodide staining based flow cytometry (reference value: 28.7 to 32.3%); type: functional
Hep 3B2 [11] = experiment: Induction of autophagy in human Hep3B cells assessed as ratio of LC3-2 to beta actin level at 40 uM after 72 hrs in presence of curcumin by Western blot analysis
Hep 3B2 [12] = experiment: Cytotoxicity against human Hep3B cells at 20 uM after 24 hrs by MTT assay relative to control; type: functional
Hep 3B2 [13] = experiment: Growth inhibition of human Hep3B cells after 48 hrs by MTT assay; type: functional, cell-based
Hep 3B2 [14] = experiment: Growth inhibition of human Hep3B cells at 2.5 uM after 48 hrs in presence of curcumin by MTT assay; type: functional
Hep 3B2 [15] = experiment: Cell cycle arrest in human Hep3B cells assessed as accumulation at G0/G1 phase at 10 uM after 48 hrs in presence of curcumin by propidium iodide staining based flow cytometry (reference value: […] +/- […]%); type: functional
Hep 3B2 [16] = experiment: Cell cycle arrest in human Hep3B cells assessed as accumulation at sub-G1 phase at 10 uM after 48 hrs in presence of curcumin by propidium iodide staining based flow cytometry (reference value: 3.7 +/- 0.4%); type: functional
Hep 3B2 [17] = experiment: Cell cycle arrest in human Hep3B cells assessed as accumulation at S phase at 10 uM after 48 hrs in absence of curcumin by propidium iodide staining based flow cytometry (reference value: 23.8 +/- 1.9%); type: functional
Hep 3B2 [18] = experiment: Induction of apoptosis in human Hep3B cells assessed as ratio of cleaved caspase-3 to beta actin level at 10 uM after 48 hrs in presence of curcumin by Western blot analysis; type: functional
Hep 3B2 [19] = experiment: Induction of autophagy in human Hep3B cells assessed as ratio of LC3-2 to beta-actin level at 10 uM after 48 hrs in absence of curcumin by Western blot analysis; type: functional
Hep 3B2 [20] = experiment: Induction of autophagy in human Hep3B cells assessed as ratio of LC3-2 to beta-actin level at 10 uM after 48 hrs in presence of curcumin by Western blot analysis; type: functional
Hep 3B2 [21] = experiment: Growth inhibition of human Hep3B cells at 20 uM up to 72 hrs by MTT assay; type: functional, cell-based
[22] = molecular target: Glycogen synthase kinase-3 alpha (Homo sapiens) (UniProt P49840); experiment: Inhibition of GSK3alpha phosphorylation at Ser21 in human Hep3B cells assessed as ratio of phosphorylated […] to beta-actin level at 10 uM after 48 hrs by Western blot analysis; type: cell-based
Chain of Glycogen synthase kinase-3 alpha (Homo sapiens) (P49840 2-483 limits assumed): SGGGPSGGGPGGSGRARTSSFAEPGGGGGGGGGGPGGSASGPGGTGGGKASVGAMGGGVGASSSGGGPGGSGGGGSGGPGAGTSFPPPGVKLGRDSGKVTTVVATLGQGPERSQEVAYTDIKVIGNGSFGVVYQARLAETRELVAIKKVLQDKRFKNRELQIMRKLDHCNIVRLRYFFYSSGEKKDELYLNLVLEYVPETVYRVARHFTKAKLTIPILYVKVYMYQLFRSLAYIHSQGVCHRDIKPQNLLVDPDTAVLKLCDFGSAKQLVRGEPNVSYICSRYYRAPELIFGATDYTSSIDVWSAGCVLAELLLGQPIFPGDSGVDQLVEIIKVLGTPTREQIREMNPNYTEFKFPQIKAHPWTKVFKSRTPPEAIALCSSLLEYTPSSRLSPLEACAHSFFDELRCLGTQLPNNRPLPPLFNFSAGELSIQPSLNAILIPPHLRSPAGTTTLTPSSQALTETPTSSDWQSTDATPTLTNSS

Hep 3B2 [23] = experiment: Down regulation of SLC27A3 expression in human Hep3B cells at 1 uM after 6 to 24 hrs by L1000 expression profiling method relative to control; type: functional
Hep 3B2 [24] = experiment: Down regulation of PAPD7 expression in human Hep3B cells at 1 uM after 6 to 24 hrs by L1000 expression profiling method relative to control; type: functional
Hep 3B2 [25] = experiment: Down regulation of UBE2J1 expression in human Hep3B cells at 1 uM after 6 to 24 hrs by L1000 expression profiling method relative to control; type: functional
Hep 3B2 [26] = experiment: Down regulation of PTK2B expression in human Hep3B cells at 1 uM after 6 to 24 hrs by L1000 expression profiling method relative to control; type: functional
Hep 3B2 [27] = experiment: Down regulation of TGFB3 expression in human Hep3B cells at 1 uM after 6 to 24 hrs by L1000 expression profiling method relative to control; type: functional
Hep 3B2 [28] = experiment: Down regulation of PLA2G4A expression in human Hep3B cells at 1 uM after 6 to 24 hrs by L1000 expression profiling method relative to control; type: functional
Hep 3B2 [29] = experiment: Down regulation of PTPRC expression in human Hep3B cells at 1 uM after 6 to 24 hrs by L1000 expression profiling method relative to control; type: functional
Hep 3B2 [30] = experiment: Down regulation of ZNF586 expression in human Hep3B cells at 1 uM after 6 to 24 hrs by L1000 expression profiling method relative to control; type: functional
Hep 3B2 [31] = experiment: Down regulation of SNX13 expression in human Hep3B cells at 1 uM after 6 to 24 hrs by L1000 expression profiling method relative to control; type: functional
Hep 3B2 [32] = experiment: Down regulation of RTN2 expression in human Hep3B cells at 1 uM after 6 to 24 hrs by L1000 expression profiling method relative to control; type: functional
Hep 3B2 [33] = experiment: Down regulation of DNMT3A expression in human Hep3B cells at 1 uM after 6 to 24 hrs by L1000 expression profiling method relative to control; type: functional
Hep 3B2 [34] = experiment: Down regulation of PIK3CA expression in human Hep3B cells at 1 uM after 6 to 24 hrs by L1000 expression profiling method relative to control; type: functional
Hep 3B2 [35] = experiment: Down regulation of EXT1 expression in human Hep3B cells at 1 uM after 6 to 24 hrs by L1000 expression profiling method relative to control; type: functional
Hep 3B2 [36] = experiment: Down regulation of SUPV3L1 expression in human Hep3B cells at 1 uM after 6 to 24 hrs by L1000 expression profiling method relative to control; type: functional

COc1ccc(CNC(=O)Nc2ncc([N+](=O)[O-])s2)cc1
Activity (Hep 3B2 [1]): 36.8% | Activity (Hep 3B2 [2]): 38.5% | Activity (Hep 3B2 [3]): 23.2% | growth inhibition (GI) (Hep 3B2 [4]): Active | Activity (Hep 3B2 [5]): 8.9% | Activity (Hep 3B2 [6]): 35% | Activity (Hep 3B2 [7]): 34.7% | Activity (Hep 3B2 [8]): 41.6% | Activity (Hep 3B2 [9]): 13.5% | Activity (Hep 3B2 [10]): 42.8% | Ratio (Hep 3B2 [11]): 2.6

O=C1COc2ccccc2N1Cc1cn(CCC2OCCO2)nn1
Activity (Hep 3B2 [12]): 24.1% | growth inhibition (GI) (Hep 3B2 [13]): Dose-dependent effect | CI (Hep 3B2 [14]): 0.96 | Activity (Hep 3B2 [15]): 24.8% | Activity (Hep 3B2 [16]): 21.6% | Activity (Hep 3B2 [17]): 13.9% | Ratio (Hep 3B2 [18]): 1.4 | Ratio (Hep 3B2 [19]): 2.2 | Ratio (Hep 3B2 [20]): 10.5 | growth inhibition (GI) (Hep 3B2 [21]): Active | Ratio [22]: 0.9 | log2FC (Hep 3B2 [23]): -3.1535 | log2FC (Hep 3B2 [24]): -3.2796 | log2FC (Hep 3B2 [25]): -3.3451 | log2FC (Hep 3B2 [26]): -3.3744 | log2FC (Hep 3B2 [27]): -3.4573 | log2FC (Hep 3B2 [28]): -3.7476 | log2FC (Hep 3B2 [29]): -3.9957 | log2FC (Hep 3B2 [30]): -4.0824 | log2FC (Hep 3B2 [31]): -4.142 | log2FC (Hep 3B2 [32]): -4.1606 | log2FC (Hep 3B2 [33]): -4.2565 | log2FC (Hep 3B2 [34]): -4.2586 | log2FC (Hep 3B2 [35]): -4.2621 | log2FC (Hep 3B2 [36]): -4.4808
